In patent EP4578855A1, “PROLYL HYDROXYLASE INHIBITOR AND USE THEREOF” (Suzhong Pharmaceutical Group Co., Ltd., priority 2022, dated 2024):
Values joined by “and” are separate entries in the source; they are usually repeats but may differ in a detail not shown here. Equal values may be shown once. Read-outs that look alike come from different tables or passages of the source.

What was measured:
PHD2 enzyme = molecular target: T1, PHD2 enzyme (Homo sapiens, UniProt Q9GZT9); assay: Detection of PHD2 enzyme activity inhibition (FITC-HIF1α tracer, mP read-out); type: biochemical
T1 construct: purchased Active motif
Method: (1) A 1×Assay buffer was prepared. […] 100 nL of 100% DMSO was added into a negative control well and a positive control well respectively. (3) An enzyme solution with 2 times final concentration was prepared with the 1×Assay buffer. (4) 5 µL of the enzyme solution with 2 times final concentration was added into a compound well and the positive control well respectively. (5) 5 µL of the 1 ×Assay buffer was added into the negative control well. (6) The 384-well plate was centrifuged at 1000 rpm for 30 seconds, oscillated and mixed evenly, and then incubated for 15 minutes. (7) A tracer solution with 2 times final concentration was prepared with the 1×Assay buffer, and 5.0 µL of the tracer solution with 2 times final concentration was added to start the reaction.

[1] = system: human hepatocarcinoma cell line Hep3B; assay: In-vitro erythropoietin (EPO)-inducing activity experiment (EPO ELISA, OD450); type: cell-based; conditions: Homo sapiens, Hep3B cells, incubated 24 hours at 37°C
Method: In-vitro erythropoietin (EPO)-inducing activities of the compounds in Embodiments 10 to 12 were evaluated by using a human hepatocarcinoma cell line Hep3B (ATCC). Hep3B cells were cultured in an EMEM medium (Eagle's Minimum Essential Medium) at 37°C in the presence of 10% fetal bovine serum (FBS). Experimental steps were as follows: • (1) Cell preparation: the cells were inoculated in a 96-well plate, and cell plating was carried out according to an amount of 100 µL per well based on 2*10~4 per well. • (2) Preparation of compound concentration gradient: 100 µM, 20 µM, 2-parallel well detection. A solution with 200 times final concentration was prepared in a 96-well plate, the compound was diluted 200/3 times by using a cell culture medium, and then 50 µL of the compound was sucked for drug administration to the cells. 50 µL of DMSO-containing culture solution was added into a negative control well to make a final concentration contain 5 ‰ DMSO, and 50 µL of positive compound with the highest concentration was added into a positive control well to incubate the cells at 37°C for 24 hours. • (3) The reaction plate was washed twice with 1X Wash Buffer according to about 400 µL per well. • (4) 100 µL of diluted standard (comprising a standard blank control) was added into an appropriate well. • (5) 50 µL of sample and 50 µL of Sample Diluent were added into a sample well. • (6) 50 µL of 1X Biotin Conjugated Antibody were added into all wells to incubate the cells at room temperature for 1 hour. • (7) The reaction plate was washed with 1X Wash Buffer for 6 times according to about 400 µL per well. • (8) 100 µL of 1X Streptavidin-HRP was added in to each well to incubate the cells at room temperature for 15 minutes. • (9) The reaction plate was washed with 1X Wash Buffer for 6 times according to about 400 µL per well. • (10) 100 µL of TMB Substrate Solution was added into each well to incubate the cells at room temperature for 10 minutes. • (11) 100 µL of Stop Solution was added into each well. • (12) OD450 was read by EnSight.
The EPO-inducing activities of the compounds were expressed as the concentration for 50% of maximal effect (EC50).

[2] = Pharmacokinetic evaluation after intravenous injection or intragastric administration, plasma LC-MS/MS; type: in vivo, SD rats; conditions: male, Sprague-Dawley, rat, plasma, male SD rats
Source text: After the compounds were given to SD rats by intravenous injection or intragastric administration, concentrations of related compounds in plasma were detected by an LC-MS/MS method, and pharmacokinetics and absolute bioavailability of the compounds prepared in Embodiments 13 and 14 in the rats were preliminarily evaluated.
2. Line: Sprague Dawley rats, sex: male, weight: 200 g to 250 g
Pharmacokinetic characteristics of rodents after intravenous injection and oral administration of the compounds were tested by a standard scheme. In the experiment, a candidate compound was prepared into a clear solution, and given to the rats by single intravenous injection and intragastric administration. A solvent for intravenous injection was a certain proportion of N,N-dimethylacetamide (DMA) and 10% Solutol HS15 solution, and a solvent for oral administration was a certain proportion of sodium carboxymethyl cellulose (CMC) suspension. 5 minutes, 15 minutes, 30 minutes, 1 hour, 2 hours, 4 hours, 6 hours, 8 hours, 10 hours and 24 hours after drug administration, blood samples of the animals were respectively collected into K2EDTA anticoagulation tubes, which were temporarily stored on ice until centrifugation.

EPO (erythropoietin) = assay: Pharmacological evaluation: influence of continuous administration on EPO level; type: in vivo, SD rats
Method: This experiment was intended to evaluate an influence of continuous administration of the compounds prepared in Embodiments 12, 13 and 14 on EPO (erythropoietin) in SD rats.
• Line: SD (Sprague Dawley) • Weeks of age and weight: 8 weeks, weight 200 g to 220 g • Sex: male • Animal source: Beijing Vital River Laboratory Animal Technology Co., Ltd.
• Positive drug: Enarodustat • Description: commercialized drugs approved for marketing in Japan • Specification and content: 2 mg JTZ-951(Enarodustat), 140 capsules/box
After a week of adaptive feeding, SD rats were randomly divided into 3 groups, 6 rats in each group, which were namely a blank group, a positive drug group (Enarodustat) and a group of compound in Embodiment 12. An Enarodustat tablet was crushed by a mortar, then quantitatively added with 0.5% methyl cellulose, and magnetically stirred and mixed evenly; and the compound prepared in Embodiment 12 was weighed, then quantitatively added with 0.5% methyl cellulose, and magnetically stirred and mixed evenly. […] The drug was given once a day for 14 consecutive days, and blood was taken to measure an EPO level 4 hours after the drug was given on the 14th day.

[3] = test concentration from 10 µM, diluted 3 times into 10 concentrations, read-out: IC50

T1 sequence (Q9GZT9 whole entry, species assumed): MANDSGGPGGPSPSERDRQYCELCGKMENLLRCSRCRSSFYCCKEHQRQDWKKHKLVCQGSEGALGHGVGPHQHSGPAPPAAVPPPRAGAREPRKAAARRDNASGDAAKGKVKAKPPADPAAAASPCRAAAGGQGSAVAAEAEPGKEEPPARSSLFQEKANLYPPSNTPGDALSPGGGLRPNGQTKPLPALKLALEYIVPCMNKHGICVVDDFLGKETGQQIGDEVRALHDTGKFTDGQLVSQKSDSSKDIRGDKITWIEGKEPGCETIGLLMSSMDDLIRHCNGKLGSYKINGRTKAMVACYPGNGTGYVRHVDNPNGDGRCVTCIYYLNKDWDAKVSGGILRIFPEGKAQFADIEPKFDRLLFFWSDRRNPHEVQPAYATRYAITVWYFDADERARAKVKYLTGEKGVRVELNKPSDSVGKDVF

| SMILES | IC50 (PHD2 enzyme; [3]) [nM] | other results |
| --- | --- | --- |
| O=C(O)CNC(=O)c1c(O)cc(C=Cc2ccccc2)n2ncnc12 [Compound in Embodiment 11, [(7-hydroxy-5-(styryl)-[1,2,4]triazolo[1,5-a]pyridine-8-carbonyl)amino]acetic acid] | 31.3 | EC50 ([1]; Hep3B, 24 h): 1.79 µM |
| O=C(O)CNC(=O)c1c(O)cc(CCc2ccccc2)n2ncnc12 [Enarodustat, reference compound] |  | AUC ([2]; route and dose not given, read-out: Concentration integral AUC): 11400 ng·h/mL; half-life ([2]; route and dose not given, read-out: Half-life period T1/2 (converted)): 67.2 min; bioavailability ([2]; oral, intragastric vs intravenous, read-out: Bioavailability F): 30.1%; IC50 (PHD2 enzyme): 21.9 nM; EC50 [1]: 15.1 µM; EPO levels in serum of the rats (EPO (erythropoietin); after 14 days of administration, in words): increased significantly; EPO level after 14 days of administration (EPO (erythropoietin); individual rats 1-6, 0.3 mg/mL, 10 mL/kg, once a day for 14 consecutive days, blood 4 hours after the drug on the 14th day, 2904.6 pg/mL was an upper limit of measurement): 452.8 pg/mL and 396.3 pg/mL and 483.2 pg/mL and 404.5 pg/mL and 418.4 pg/mL and 442.3 pg/mL; EPO level after 14 days of administration, Mean (EPO (erythropoietin); mean of 6 rats, 0.3 mg/mL, 10 mL/kg, once a day for 14 consecutive days, blood 4 hours after the drug on the 14th day, 2904.6 pg/mL was an upper limit of measurement): 432.9 pg/mL |
| CCCOc1cc(O)c(C(=O)NCC(=O)O)c2ncnn12 [Compound in Embodiment 9, (5-(propoxy)-7-hydroxy-[1,2,4]triazolyl[1,5-a]pyridine-8-carbonyl)glycine] | 34 |  |
| O=C(O)CNC(=O)c1c(O)cc(Oc2cccc(N3CCOCC3)c2)n2ncnc12 [Compound in Embodiment 7, (5-(3-morpholinphenoxy)-7-hydroxy-[1,2,4]triazolyl[1,5-a]pyridine-8-carbonyl)glycine] | 34.1 |  |
| Cc1nc(C(=O)NCC(=O)O)c(O)c2ccc(Oc3ccccc3)cc12 [FG-4592, Roxadustat, reference compound] |  | EC50 ([1]; Hep3B, 24 h): 13.8 µM |
| O=C(O)CNC(=O)c1c(O)cc(C#Cc2ccccc2)n2ncnc12 [Compound in Embodiment 10, [(7-hydroxy-5-(phenylethynyl)-[1,2,4]triazolo[1,5-a]pyridine-8-carbonyl)amino]acetic acid] | 46.7 | EC50 ([1]; Hep3B, 24 h): 6.46 µM |

More lines, main results first:

| IC50 (PHD2 enzyme; [3]) [nM] | SMILES | other results |
| --- | --- | --- |
| 34.8 | O=C(O)CNC(=O)c1c(O)cc(Oc2ccccc2Cl)n2ncnc12 [Compound in Embodiment 2, (5-(2-chlorophenoxy)-7-hydroxy-[1,2,4]triazolyl[1,5-a]pyridine-8-carbonyl)glycine] |  |
| 35.4 | O=C(O)CNC(=O)c1c(O)cc(Oc2ccc(F)cc2)n2ncnc12 [Compound in Embodiment 8, (5-(4-fluorophenoxy)-7-hydroxy-[1,2,4]triazolyl[1,5-a]pyridine-8-carbonyl)glycine] |  |
| 44.1 | Cc1ccc(Oc2cc(O)c(C(=O)NCC(=O)O)c3ncnn23)cc1 [Compound in Embodiment 5, (5-(p-tolyloxy)-7-hydroxy-[1,2,4]triazolyl[1,5-a]pyridine-8-carbonyl)glycine] |  |
| 33.3 | O=C(O)CNC(=O)c1c(O)cc(Oc2ccc(Cl)cc2)n2ncnc12 [Compound in Embodiment 4, (5-(4-chlorophenoxy)-7-hydroxy-[1,2,4]triazolyl[1,5-a]pyridine-8-carbonyl)glycine] |  |
| 47.6 | COc1ccc(Oc2cc(O)c(C(=O)NCC(=O)O)c3ncnn23)cc1 [Compound in Embodiment 6, (5-(p-methoxyphenoxy)-7-hydroxy-[1,2,4]triazolyl[1,5-a]pyridine-8-carbonyl)glycine] |  |
| 19.8 | O=C(O)CNC(=O)c1c(O)cc(Oc2ccccc2)n2ncnc12 [Compound in Embodiment 1] |  |
| 30.2 | O=C(O)CNC(=O)c1c(O)cc(Oc2cccc(Cl)c2)n2ncnc12 [Compound in Embodiment 3, (5-(3-chlorophenoxy)-7-hydroxy-[1,2,4]triazolyl[1,5-a]pyridine-8-carbonyl)glycine] |  |
